From US20220000805A1, “COMBINATION OF M-OPIOID RECEPTOR (MOR) MODULATORS FOR PREVENTING AND TREATING PAIN, S[…] MENTAL DISORDERS” (HADAS IT MEDICAL RESEARCH SERVICES & DEVELOPMENT LIMITED, priority 2018, published 2022)
“And” between values parts separate entries of the source, which are not always exact repeats. Identical values can stand only once. Like-named read-outs stand apart in the source and are kept apart here.

Columns and labels:
[1] = single iv bolus dose of 0.5 mg/kg racemic ketamine; for at least 24 hrs; cited from earlier work
[2] = test system: opioid-receptor; conditions: opioid agonist; relative to 7-hydroxymitragynine; cited from earlier work
[3] = biological target: T1, h-OPRM1 (human MOR) (Homo sapiens, UniProt P35372); type: cell-based
T1 construct: host or cells: Chinese hamster ovary (CHO) cells, cAMP Hunter cell line
Experimental: Tracking cAMP Secondary Messenger Pathway in MOR Expressing Cells (DiscoverX)
A Chinese hamster ovary cell line stably expressing non-tagged h-OPRM1 (human MOR) that signal through cAMP was used.
1. cAMP Hunter cell line expressing h-OPRM1 was expanded from freezer stocks according to standard procedures. 2. Cells were seeded in a total volume of 20 μL into white walled, 384-well microplates and incubated at 37° C. for the appropriate time prior to testing. 3. cAMP modulation was determined using the DiscoverX HitHunter cAMP XS+ assay (for further details, see below).
1. For agonist determination, cells were incubated with sample in the presence of EC80 forskolin to induce cAMP-generation and Gi agonist activity, inhibiting cAMP formation, by the test compound was assayed, as follows: 2. Media was aspirated from cells and replaced with 15 μL 2:1 HBSS/10 mM Hepes: cAMP XS+Ab reagent. 3. Intermediate dilution of sample stocks was performed to generate 4× sample in assay buffer containing 4× EC80 forskolin. An amount of 4.5 μL of 4× sample was added to cells and incubated at 37° C. or room temperature for 30 or 60 minutes. The vehicle used for all stock solutions is DMSO and its final concentration in the assay system was 1%.
1. After appropriate compound incubation, assay signal was generated through incubation with 20 μL cAMP XS+ED/CL lysis cocktail for one hour followed by incubation with 20 μL cAMP XS+EA reagent for three hours at room temperature. 2. Microplates were read following signal generation with a PerkinElmer Envision™ instrument for chemiluminescent signal detection.
1. Compound activity was analyzed using CBIS data analysis suite (ChemInnovation, CA). 2. For Gi agonist mode assays, percentage activity is calculated using the following formula: % Activity=100%×(1−(mean RLU of test sample−mean RLU of MAX control)/(mean RLU of vehicle control−mean RLU of MAX control)).
OPRM1, the μ-opioid receptor (MOR), is a GPCR with high affinity for enkephalins and beta-endorphin, but a low affinity for dynorphins. The prototypical OPRM1 agonist is morphine, the primary psychoactive alkaloid in opium. It is an inhibitory G-protein coupled receptor that activates the Gi alpha subunit, inhibiting adenylate cyclase activity, thereby lowering cAMP levels. In order to test synergy of various drug combinations, towards the human receptor (h-OPRM1), a high sensitivity and absolute selectivity assay system, developed by DiscoverX (Fremont, Calif., USA) was employed. The analytical power of this assay, described in detail below, enables unequivocal identification of agonistic or antagonistic activity of drugs towards h-OPRM1, at the biologically relevant cellular context. […] A positive control dose-response was also examined in parallel (see FIG. 6).

T1 sequence (P35372 whole entry): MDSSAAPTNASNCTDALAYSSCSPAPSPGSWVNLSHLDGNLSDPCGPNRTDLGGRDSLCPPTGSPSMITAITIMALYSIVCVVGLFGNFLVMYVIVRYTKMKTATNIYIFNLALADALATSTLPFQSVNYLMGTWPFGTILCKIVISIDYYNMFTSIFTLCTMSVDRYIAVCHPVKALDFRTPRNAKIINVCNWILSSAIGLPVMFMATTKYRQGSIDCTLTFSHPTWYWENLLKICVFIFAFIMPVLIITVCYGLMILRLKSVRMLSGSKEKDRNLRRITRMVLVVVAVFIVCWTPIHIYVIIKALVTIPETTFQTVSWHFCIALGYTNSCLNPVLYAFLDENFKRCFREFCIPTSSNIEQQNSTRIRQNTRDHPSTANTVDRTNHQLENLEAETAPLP

Molecule: CNC1(c2ccccc2Cl)CCCCC1=O (racemic) [Ketamine, (RS)-2-(2-Chlorophenyl)-2-(methylamino)cyclohexanone]
- HNK serum concentrations [1]: about 30 nM

Molecule: 10-fluoro ethylene glycol adduct of 7-hydroxymitragynine
- potency higher than 7-hydroxymitragynine [2]: 4 fold

Molecule: CN1c2ccccc2C(NCCCCCCC(=O)O)c2ccc(Cl)cc2S1(=O)=O (stereo not shown) [Tia, 7-[(3-Chloro-6-methyl-5,5-dioxo-11H-benzo[c][2,1]benzothiazepin-11-yl)amino]heptanoic acid]
- amount of the single agent that obtains the level of activity of the combination [3]: > 5 ×

Molecule: N[C@@]1(c2ccccc2Cl)CCC[C@@H](O)C1=O.O=C(O)C(F)(F)F (racemic) [HNK, rac-(2r,6r)-2 amino-2-(2-chlorophenyl)-6-hydroxycyclohexan-1-one; trifluoroacetic acid, trans]
- agonistic activity of the ketamine active metabolite by itself [3]: no agonistic activity
- Agonistic activity (% of maximal c-AMP inhibition) ([3]; HNK 0.08 nM by itself, Table 2/5 series): 0% and 3.1%
- Agonistic activity (% of maximal c-AMP inhibition) ([3]; HNK 0.4 nM by itself, Table 2/5 series): 0% and 7.6%
- Agonistic activity (% of maximal c-AMP inhibition) ([3]; HNK 2 nM by itself, Table 2/5 series): 0%
- Agonistic activity (% of maximal c-AMP inhibition) ([3]; HNK 10 nM by itself, Table 2/5 series): 0%
- Agonistic activity (% of maximal c-AMP inhibition) ([3]; HNK 50 nM by itself, Table 1 series): 1.3%
- Agonistic activity (% of maximal c-AMP inhibition) ([3]; HNK 50 nM by itself, Table 2/5 series): 0% and 6.7%
- Agonistic activity (% of maximal c-AMP inhibition) ([3]; HNK 300 nM by itself, Table 1 series): 10.3%
- Agonistic activity (% of maximal c-AMP inhibition) ([3]; HNK 1,800 nM by itself, Table 1 series): −3.4%
- Agonistic activity (% of maximal c-AMP inhibition) ([3]; HNK 11,000 nM by itself, Table 1 series): −8.6%
